Laboratory results taken from article PMC8448819, “The Arabidopsis MIK2 receptor elicits immunity by sensing a conserved signature from phytocytokines and microbes” (Nature Communications, 2021).
Several values for one entry are separate records, joined by “and”; a condition that tells them apart may be missing. Identical values can stand only once. Entries after “also recorded” stand apart in the source; their conditions may differ. Like-named read-outs stand apart in the source and are kept apart here. No end group written: not given here.

What was measured:
Format in all cases: in vivo, Arabidopsis thaliana
[1] = tested on: mik2-1 and mik2-2 mutant seedlings; details: for Root length (Fig. 3e): individual values, one per line; for root growth inhibition in mik2: mik2-1 and mik2-2, 10-day-old seedlings, 1 µM peptide
[2] = tested on: Arabidopsis WT seedlings; experiment: ROS assay (luminol), WT seedlings; details: WT seedlings
Experimental: ROS burst was determined by a luminol-based assay. […] Then, ddH2O was replaced by 200 µL of reaction solution containing 50 µM of luminol, and 10 µg/mL of horseradish peroxidase (Sigma-Aldrich) supplemented with or without 100 nM or 1 μM peptide. Luminescence was measured immediately after adding the solution with a luminometer (Glomax 20/20n, Promega) with a one-second interval for 15 min. The total values of ROS production were indicated as means of the relative light units (RLUs).

[3] = tested on: Arabidopsis WT (Col-0) seedlings; details: in vivo
[4] = tested on: WRKY30, WRKY33 and CYP81F2 expression, mik2 seedlings; experiment: RT-qPCR of defense genes, mik2 mutants
[5] = tested on: WRKY30, WRKY33 and CYP81F2 expression, WT seedlings; experiment: RT-qPCR of defense genes, WT
[6] = tested on: MYB51 promoter, pMYB51::GUS seedling roots; experiment: Histochemical GUS staining, pMYB51::GUS; details: pMYB51::GUS seedlings, 1 µM, 3 h
Description: Stained samples were fixed with a 3:1 ethanol:acetic acid solution overnight and cleared by lactic acid and photographed with the Olympus SZX10 stereoscopic microscope equipped with DP27 camera.

[7] = tested on: MPK3, MPK4 and MPK6 phosphorylation, WT seedlings; experiment: MAPK assay (α-pERK1/2 immunoblot), WT; details: Supplementary Fig. 3i
Experimental: Ten-day-old seedlings grown vertically on ½MS plates were transferred to ddH2O overnight for recovery. Then, ddH2O was replaced by 100 nM peptides for the indicated time.

[8] = tested on: Arabidopsis WT seedling roots; experiment: Microscopy of root browning and root meristems, WT
[9] = tested on: p35S::Aequorin seedlings; details: Ca^2+ and ROS bursts, 100 nM

| Sequence | Root length (Fig. 3e) ([1]; mik2-1) | Root length (Fig. 3e) ([1]; mik2-2) | root growth inhibition [3] | MYB51 promoter activity in roots [6] | other results |
| --- | --- | --- | --- | --- | --- |
| GAPIVFTPPSSSCGGSP [STMP4, STMP4 peptide, which has an amino acid deletion in the conserved SxS motif] | 26.035 and 22.177 and 25.221 and 21.231 and 23.232 and 25.379 and 25.816 and 25.603 and 24.49 | 27.261 and 26.645 and 24.381 and 25.81 and 23.327 and 24.383 and 26.715 and 24.68 and 25.536 and 24.727 |  |  |  |
| KIAVGGSDSVRAHSK [SCOOP23, synthesized SCOOP peptide corresponding to the SxS motif] | 23.435 and 26.217 and 25.329 and 21.432 and 22.769 and 26.981 and 22.432 and 24.659 and 23.767 and 23.209 | 23.086 and 28.297 and 24.517 and 23.273 and 27.734 and 25.385 and 23.518 and 22.015 and 26.958 and 26.866 and 23.718 | inhibited root growth to various degrees |  | ROS production, total luminescence (Fig. 2h) ([2]; repeat 1): 2180098; ROS production, total luminescence (Fig. 2h) ([2]; repeat 2): 1251437; ROS production, total luminescence (Fig. 2h) ([2]; repeat 3): 1771537 |
| KIGASGSNSGRAPSC [SCOOP20, synthesized SCOOP peptide corresponding to the SxS motif] | 24.471 and 25.145 and 23.922 and 25.251 and 22.928 and 25.223 and 20.452 and 22.037 and 23.256 and 20.819 | 26.727 and 24.181 and 24.271 and 27.062 and 26.494 and 25.973 and 25.806 and 29.152 and 24.029 and 26.34 and 22.997 | inhibited root growth to various degrees |  | ROS production, total luminescence (Fig. 2h) ([2]; repeat 1): 5262077; ROS production, total luminescence (Fig. 2h) ([2]; repeat 2): 3306520; ROS production, total luminescence (Fig. 2h) ([2]; repeat 3): 2873103 |
| MGSGASGPVRSSQSSQAGGR [SCOOP12] |  |  |  |  | CYP81F2 expression (Fig. 3i) ([4]; mik2-1, repeat 1): 5.42; CYP81F2 expression (Fig. 3i) ([4]; mik2-1, repeat 2): 5.95; CYP81F2 expression (Fig. 3i) ([4]; mik2-1, repeat 3): 2.79; CYP81F2 expression (Fig. 3i) ([4]; mik2-1, repeat 4): 3.39; CYP81F2 expression (Fig. 3i) ([4]; mik2-2, repeat 1): 6.08; CYP81F2 expression (Fig. 3i) ([4]; mik2-2, repeat 2): 9.84; CYP81F2 expression (Fig. 3i) ([4]; mik2-2, repeat 3): 9.95; CYP81F2 expression (Fig. 3i) ([4]; mik2-2, repeat 4): 12.98; WRKY30, WRKY33 and CYP81F2 expression ([4]; mik2 mutants, 1 µM, 1 h, RT-qPCR): abolished in mik2 mutants; WRKY30, WRKY33 and CYP81F2 expression ([5]; 1 µM, 1 h, RT-qPCR): upregulation; CYP81F2 expression (Fig. 3i) ([5]; repeat 1): 29.17; CYP81F2 expression (Fig. 3i) ([5]; repeat 2): 38.18; CYP81F2 expression (Fig. 3i) ([5]; repeat 3): 74.97; CYP81F2 expression (Fig. 3i) ([5]; repeat 4): 101.98 |
| MISEARPSKSKKGGGR [SCOOP6B, synthesized SCOOP peptide corresponding to the SxS motif] | 26.764 and 22.587 and 22.234 and 24.018 and 23.886 and 24.716 and 22.804 and 23.685 and 23.478 and 25.619 | 24.299 and 28.027 and 25.995 and 25.387 and 24.265 and 26.073 and 27.219 and 21.779 and 25.474 and 24.644 | inhibited root growth to various degrees |  |  |
| PPRGPGGSGSGHGGGR [AtSCOOPL, SCOOPL from Acidovorax temperans] |  |  | inactivity | inactivity |  |
| PPRGSGGPGGSGHGGGG [AaSCOOPL, SCOOPL from Acidovorax avenae] |  |  | inactivity | inactivity |  |
| PPRGSGGSGSGHGGGR [VeSCOOPL, SCOOPL from Verminephrobacter eiseniae] |  |  | induced growth inhibition | MYB51 promoter activation in roots | root growth inhibition in mik2 [1]: blocked in mik2-1 |
| PPRGSGGSSSGHGGGR [CuSCOOPL, SCOOPL from a strain of Curvibacter sp] |  |  | induced growth inhibition | MYB51 promoter activation in roots | root growth inhibition in mik2 [1]: blocked in mik2-1 |
| RGIVKPPIASFHSASPKDKGP [SCOOP4, synthesized SCOOP peptide corresponding to the SxS motif] | 22.155 and 26.016 and 23.373 and 23.51 and 24.985 and 25.73 and 26.362 and 20.719 and 23.733 and 21.154 | 26.627 and 26.926 and 29.205 and 26.909 and 23.654 and 24.824 and 23.191 and 25.56 and 22.857 and 22.903 and 27.736 | inhibited root growth to various degrees |  |  |
| RPPTPRVAVHSNSTKGKGP [SCOOP15B, synthesized SCOOP peptide corresponding to the SxS motif] | 22.469 and 26.152 and 25.889 and 25.356 and 27.954 and 26.487 and 24.47 and 23.738 | 21.779 and 26.908 and 23.024 and 23.497 and 28.191 and 26.08 and 24.094 and 28.257 and 26.467 and 23.539 and 26.537 | inhibited root growth to various degrees |  |  |
| RSMAPPIFVPPSTSHKGQGP [SCOOP14, synthesized SCOOP peptide corresponding to the SxS motif] | 24.089 and 21.232 and 24.336 and 25.505 and 25.175 and 27.845 and 26.169 and 23.827 and 21.884 and 25.844 | 25.38 and 24.419 and 26.016 and 27.911 and 26.615 and 21.291 and 24.947 and 21.905 and 24.43 and 24.226 | inhibited root growth to various degrees; also recorded: potent in inhibiting root growth | induced the promoter activities of MYB51 | ROS production, total luminescence (Fig. 2h) ([2]; repeat 1): 719851; ROS production, total luminescence (Fig. 2h) ([2]; repeat 2): 1351126; ROS production, total luminescence (Fig. 2h) ([2]; repeat 3): 841586; MAPK activation in shoots and roots [7]: triggered the MAPK activation in both shoots and roots; root browning ([8]; WT seedlings, prolonged treatment): led to brown roots; root meristem distortion ([8]; WT, 5-day-old seedlings, 1 µM, 48 h, PI staining): distorted root meristems; ROS production, SCOOP13 and 14 relative to other SCOOPs, and Ca^2+ bursts [9]: relatively weak activities for Ca^2+ and ROS bursts |
| SNIDFEGSISGQAGGG [SCOOP8, synthesized SCOOP peptide corresponding to the SxS motif] | 25.253 and 25.162 and 23.049 and 22.582 and 26.011 and 22.381 and 28.631 and 26.512 and 24.502 and 27.853 | 23.975 and 28.387 and 29.648 and 23.838 and 24.549 and 26.123 and 23.426 and 24.732 and 24.595 and 29.804 and 26.398 | inhibited root growth to various degrees |  |  |
